Test results published in patent publication US7601713B2, “Kinase inhibitors and their uses” (Rigel Pharmaceuticals, Inc., priority 2005, dated 2009).

target: Lck kinase (Homo sapiens, UniProt P06239); test: Lck kinase inhibition; format: biochemical; settings: not given
Sequence (P06239 whole entry): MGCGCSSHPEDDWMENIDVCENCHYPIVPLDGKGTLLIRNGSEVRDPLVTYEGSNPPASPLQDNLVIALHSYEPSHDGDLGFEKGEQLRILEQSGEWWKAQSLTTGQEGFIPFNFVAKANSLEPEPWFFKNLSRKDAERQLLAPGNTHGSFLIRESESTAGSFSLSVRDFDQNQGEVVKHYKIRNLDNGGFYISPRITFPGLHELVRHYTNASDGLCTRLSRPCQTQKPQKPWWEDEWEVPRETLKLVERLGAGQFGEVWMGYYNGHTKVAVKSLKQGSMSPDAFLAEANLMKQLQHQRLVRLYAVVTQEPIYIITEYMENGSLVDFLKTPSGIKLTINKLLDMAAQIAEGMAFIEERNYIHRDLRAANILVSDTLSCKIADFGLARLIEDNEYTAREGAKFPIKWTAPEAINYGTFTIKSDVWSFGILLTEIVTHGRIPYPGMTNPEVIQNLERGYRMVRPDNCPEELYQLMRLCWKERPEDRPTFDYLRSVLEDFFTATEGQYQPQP

IC50, < 5 µM:
Cc1cccc(Nc2nc(NC3C4CCC(C4)C3C(N)=O)c3cc[nH]c3n2)c1 (racemic) [Compound 165, Racemic-(2-exo,3-exo)-N4-(3-aminocarbonylbicyclo[2.2. 1]hept-2-yl)-N2-(3-methyl)phenyl-1H-pyrrolo[2,3-d]pyrimidine-2,4-diamine]
NC(=O)c1c[nH]c2ccc(Nc3nc(NC4C5C=CC(C5)C4C(N)=O)c4nc[nH]c4n3)cc12 (racemic) [Compound 152, Racemic-(2-exo,3-exo-)-N6-(3-aminocarbonylbicyclo[2.2. 1]hept-5-en-2-yl)-N2-(3-aminocarbonyl-1H-indol-5-yl)-1H-purine-2,6-diamine]
NC(=O)C1C2C=CC(C2)C1Nc1nc(Nc2cccc3[nH]ccc23)nc2[nH]cnc12 (racemic) [Compound 135, Racemic-(2-exo,3-exo)-N6-(3-aminocarbonylbicyclo[2.2. 1]hept-5-en-2-yl)-N2-(1H-indol-4-yl)-1H-purine-2,6-diamine]

target: kinase Lyn b (Homo sapiens, UniProt P07948); test: Lyn b kinase inhibition; format: biochemical; settings: not given
Sequence (P07948 1-491 isoform P07948-2): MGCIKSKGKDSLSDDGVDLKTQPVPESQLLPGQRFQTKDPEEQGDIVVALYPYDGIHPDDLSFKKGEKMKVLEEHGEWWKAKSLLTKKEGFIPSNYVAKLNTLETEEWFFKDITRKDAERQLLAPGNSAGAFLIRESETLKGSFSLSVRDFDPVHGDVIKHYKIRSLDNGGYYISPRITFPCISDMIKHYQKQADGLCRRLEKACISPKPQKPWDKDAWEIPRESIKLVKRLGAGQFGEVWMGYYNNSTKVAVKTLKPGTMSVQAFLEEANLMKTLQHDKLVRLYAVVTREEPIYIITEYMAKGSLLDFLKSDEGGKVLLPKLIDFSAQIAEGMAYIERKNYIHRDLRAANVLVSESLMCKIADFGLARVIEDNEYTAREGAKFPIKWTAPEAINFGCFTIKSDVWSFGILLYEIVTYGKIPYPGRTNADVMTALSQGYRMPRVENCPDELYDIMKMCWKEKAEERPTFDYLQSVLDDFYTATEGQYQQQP

IC50, < 1 µM:
NC(=O)[C@H]1[C@@H](Nc2nc(Nc3cccc(OCCN4CCOCC4)c3)nc3[nH]cnc23)[C@@H]2C=C[C@H]1C2 [Compound 113, (1S,2S,3R,4R)-N6-(3-Aminocarbonylbicyclo[2.2. 1]hept-5-en-2-yl)-N2-[3-(2-morpholin-4-yl-ethoxy)phenyl]-1H-purine-2,6-diamine]
CCOc1cccc(Nc2nc(NC3C4C=CC(C4)C3C(N)=O)c3nc[nH]c3n2)c1 (racemic) [Compound 131, Racemic-(2-exo,3-exo)-N6-(3-aminocarbonylbicyclo[2.2. 1]hept-5-en-2-yl)-N2-(3-ethoxy)phenyl-1H-purine-2,6-diamine]
Cc1ccc(Nc2nc(NC3C4C=CC(C4)C3C(N)=O)c3nc[nH]c3n2)cc1F (racemic) [Compound 134, Racemic-(2-exo,3-exo)-N6-(3-aminocarbonylbicyclo[2.2. 1]hept-5-en-2-yl)-N2-(3-fluoro-4-methy)phenyl-1H-purine-2,6-diamine]
COc1cccc(Nc2nc(NC3CC4CCC3C4)c3nc[nH]c3n2)c1 (racemic) [Compound 154, Racemic-(2-exo)-N6-(bicyclo[2.2.1]hept-2-yl)-N2-(3-methoxy)phenyl-1H-purine-2,6-diamine]
NC(=O)[C@@H]1[C@H](Nc2nc(Nc3cccc(F)c3)nc3[nH]cnc23)[C@H]2C=C[C@@H]1C2 [Compound 109, (1R,2R,3S,4S)-N6-(3-Aminocarbonylbicyclo[2.2. 1]hept-5-en-2-yl)-N2-(3-fluoro)phenyl-1H-purine-2,6-diamine]
NC(=O)C1C2C=CC(C2)C1Nc1nc(Nc2ccc3c(c2)OCC(=O)N3)nc2[nH]cnc12 (racemic) [Compound 107, Racemic-(2-exo,3-exo)-N6-(3-aminocarbonylbicyclo[2.2. 1]hept-5-en-2-yl)-N2-(3,4-dihydro-3-oxo-2H-1,4-benzoxazin-7-yl)-1H-purine-2,6-diamine]
CNC(=O)COc1cccc(Nc2nc(NC3C4C=CC(C4)C3C(N)=O)c3nc[nH]c3n2)c1 (racemic) [Compound 104]
NC(=O)[C@@H]1[C@H](Nc2nc(Nc3cccc(OCCN4CCOCC4)c3)nc3[nH]cnc23)[C@H]2C=C[C@@H]1C2 [Compound 112, (1R,2R,3S,4S)-N6-(3-Aminocarbonylbicyclo[2.2. 1]hept-5-en-2-yl)-N2-[3-(2-morpholin-4-yl-ethoxy)phenyl]-1H-purine-2,6-diamine]
NC(=O)[C@@H]1[C@H](Nc2nc(Nc3ccc(Cc4ccncc4)cc3)nc3[nH]cnc23)[C@H]2C=C[C@@H]1C2 [Compound 148, (1R,2R,3S,4S)-N6-(3-Aminocarbonylbicyclo[2.2. 1]hept-5-en-2-yl)-N2-[4-(4-pyridinylmethyl)phenyl]-1H-purine-2,6-diamine]

test system: JAK kinases (JAK1 and JAK3); test: JAK inhibition: IL-4-stimulated CD23 upregulation in human Ramos B-cells, FACS; format: cell-based; settings: IL-4 stimulated Ramos B-cells, read-out: IC50, inhibition of JAK kinases in cellular assay
Outline: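 Ramos B-cells in RPMI with 5% FBS were pre-incubated with compound for 1 h at 37 °C, then stimulated with IL-4 (50 U/ml final) for 20–24 h. CD23 upregulation was measured by anti-CD23-PE staining and FACS.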

IC50, > 10 µM:
NC(=O)c1c[nH]c2ccc(Nc3nc(NC4C5C=CC(C5)C4C(N)=O)c4nc[nH]c4n3)cc12 (racemic) [Compound 152, Racemic-(2-exo,3-exo-)-N6-(3-aminocarbonylbicyclo[2.2. 1]hept-5-en-2-yl)-N2-(3-aminocarbonyl-1H-indol-5-yl)-1H-purine-2,6-diamine]
NC(=O)C1C2C=CC(C2)C1Nc1nc(Nc2cccc3[nH]ccc23)nc2[nH]cnc12 (racemic) [Compound 135, Racemic-(2-exo,3-exo)-N6-(3-aminocarbonylbicyclo[2.2. 1]hept-5-en-2-yl)-N2-(1H-indol-4-yl)-1H-purine-2,6-diamine]
